Like-named read-outs stand apart in the source and are kept apart here.
Key:
[1] = Astaxanthin levels in plasma (PK), CHASE clinical study; format: in vivo, human; conditions: for concentration at 12 week: human, oral
Description: Blood samples shall be collected for astaxanthin analysis at V2, V4, V6, and V8.
The approximate time of the most recent dose prior to PK sampling shall be documented. PK sampling is sparse, sample acquisition in relationship to the most recent dose will vary, and formal PK calculations (e.g., Tmax, Cmax, T1/2, AUC) are not possible from the collections scheduled. Analysis will consist of a tabular listing and comparison by treatment group with calculation of the mean, median, standard deviation, maximum, and minimum at the nominal visits. Sub-analysis by subject demographic and clinical characteristics (e.g., gender, age, weight, and smoking status) may be performed at the discretion of the Sponsor.
PK samples will be collected into a 6.0 mL K2EDTA tube, gently inverted sufficient times to mix the sample and anticoagulant, and placed in an ice bath for 15 minutes.
The blood samples will be centrifuged at 3500 rpm for ten minutes at room temperature for 10 minutes. Any hemolyzed or clotted samples will be documented in the study data.
All resultant plasma will be split into two approximately equal aliquots and frozen at −60 to −90° C. Samples may be initially placed on dry ice prior to being stored in the appropriate freezer.

Cholesterol = assay: Fasting lipid panel: total cholesterol, CHASE clinical study; format: in vivo, human; conditions: for Cholesterol V2 to V6 % Change Max / Cholesterol V2 to V6 % Change Mean (SD) / Cholesterol V2 to V6 % Change Median / Cholesterol V2 to V6 % Change Min / Cholesterol V2 to V6 Change Max / Cholesterol V2 to V6 Change Mean (SD) / Cholesterol V2 to V6 Change Median / Cholesterol V2 to V6 Change Min: baseline to Week 12
Description: Blood samples shall be obtained under fasted conditions for a lipid panel at V2, V4, V6, V7, and V8. This panel shall include total cholesterol, LDL-C, VLDL-C, HDL-C, and triglycerides. A minimum eight-hour fast (water allowed) is required for the lipid panel.
Fasting lipid profiles and fasting chemistry panels may be obtained within the visit time window on a day separate from the scheduled office visit, within two days before or after the other study procedures. A minimum of eight hours fasted (water allowed ad lib) is required.
Table 7M provides the changes in lipid levels (mg/dL) (V2 to V6) for subjects.

[2] = Group X 12 mg BID, V2 baseline pre-dose, BQL (less than 9.77 ng/mL) treated as 4.885
[3] = Group Z 48 mg BID, V2 baseline pre-dose, BQL (less than 9.77 ng/mL) treated as 4.885
[4] = Group X 12 mg BID, V2 baseline pre-dose, all subjects
[5] = Group X 12 mg BID, V2 baseline pre-dose, subjects with hyperlipidemia
[6] = Group X 12 mg BID, V6 Week 12, all subjects
[7] = Group X 12 mg BID, V6 Week 12, subjects with hyperlipidemia
[8] = Group X 12 mg BID, all subjects
[9] = Group X 12 mg BID, subjects with hyperlipidemia
[10] = Group Z 48 mg BID, V2 baseline pre-dose, all subjects
[11] = Group Z 48 mg BID, V2 baseline pre-dose, subjects with hyperlipidemia
[12] = Group Z 48 mg BID, V6 Week 12, all subjects
[13] = Group Z 48 mg BID, V6 Week 12, subjects with hyperlipidemia
[14] = Group Z 48 mg BID, all subjects
[15] = Group Z 48 mg BID, subjects with hyperlipidemia

astaxanthin levels Max [1, 2]: 4.89, 4.89 ng/mL
astaxanthin levels Mean (SD) [1, 2]: 4.89 (0.00) ng/mL
astaxanthin levels Median [1, 2]: 4.89 ng/mL
astaxanthin levels Min [1, 2]: 4.89, 4.89 ng/mL
astaxanthin levels Max ([1]; Group X 12 mg BID, V6 Week 12): 1282 ng/mL
astaxanthin levels Min ([1]; Group X 12 mg BID, V6 Week 12): 190.9 ng/mL
astaxanthin levels Max [1, 3]: 221.0 ng/mL
astaxanthin levels Mean (SD) [1, 3]: 17.12 (49.44) ng/mL
astaxanthin levels Median [1, 3]: 4.89 ng/mL
astaxanthin levels Min [1, 3]: 4.89 ng/mL
astaxanthin levels Max ([1]; Group Z 48 mg BID, V6 Week 12): 7030 ng/mL
astaxanthin levels Min ([1]; Group Z 48 mg BID, V6 Week 12): 409.0 ng/mL
concentration at 12 week ([1]; 12 mg, Group X 12 mg BID, V6 Week 12, read-out: astaxanthin levels Mean (SD)): 785 ng/mL
concentration at 12 week ([1]; 12 mg, Group X 12 mg BID, V6 Week 12, read-out: astaxanthin levels Median): 790 ng/mL
concentration at 12 week ([1]; 48 mg, Group Z 48 mg BID, V6 Week 12, read-out: astaxanthin levels Mean (SD)): 2590 ng/mL
concentration at 12 week ([1]; 48 mg, Group Z 48 mg BID, V6 Week 12, read-out: astaxanthin levels Median): 2180 ng/mL
SMILES: CC1=C(/C=C/C(C)=C/C=C/C(C)=C/C=C/C=C(C)/C=C/C=C(C)/C=C/C2=C(C)C(=O)C(O)CC2(C)C)C(C)(C)CC(O)C1=O (centres unmarked) [Astaxanthin, astaxanthin]
Cholesterol Max (Cholesterol; [4]): 342.0 mg/dL
Cholesterol Mean (SD) (Cholesterol; [4]): 192.0 (65.49) mg/dL
Cholesterol Median (Cholesterol; [4]): 180.0 mg/dL
Cholesterol Min (Cholesterol; [4]): 113. mg/dL
Cholesterol Max (Cholesterol; [5]): 342.0 mg/dL
Cholesterol Mean (SD) (Cholesterol; [5]): 184.5 (73.91) mg/dL
Cholesterol Median (Cholesterol; [5]): 164.0 mg/dL
Cholesterol Min (Cholesterol; [5]): 113.0 mg/dL
Cholesterol Max (Cholesterol; [6]): 339.0 mg/dL
Cholesterol Mean (SD) (Cholesterol; [6]): 182.6 (70.21) mg/dL
Cholesterol Median (Cholesterol; [6]): 163.0 mg/dL
Cholesterol Min (Cholesterol; [6]): 117.0 mg/dL
Cholesterol Max (Cholesterol; [7]): 339.0 mg/dL
Cholesterol Mean (SD) (Cholesterol; [7]): 170.3 (74.95) mg/dL
Cholesterol Median (Cholesterol; [7]): 137.5 mg/dL
Cholesterol Min (Cholesterol; [7]): 117.0 mg/dL
Cholesterol V2 to V6 % Change Max (Cholesterol; [8]): 6.67%
Cholesterol V2 to V6 % Change Mean (SD) (Cholesterol; [8]): −5.34 (10.55) %
Cholesterol V2 to V6 % Change Median (Cholesterol; [8]): −4.90%
Cholesterol V2 to V6 % Change Min (Cholesterol; [8]): −25.0%
Cholesterol V2 to V6 Change Max (Cholesterol; [8]): 17.00 mg/dL
Cholesterol V2 to V6 Change Mean (SD) (Cholesterol; [8]): −9.45 (18.08) mg/dL
Cholesterol V2 to V6 Change Median (Cholesterol; [8]): -7.00 mg/dL
Cholesterol V2 to V6 Change Min (Cholesterol; [8]): -39.0 mg/dL
Cholesterol V2 to V6 % Change Max (Cholesterol; [9]): 6.20%
Cholesterol V2 to V6 % Change Mean (SD) (Cholesterol; [9]): −7.65 (11.10) %
Cholesterol V2 to V6 % Change Median (Cholesterol; [9]): −6.92%
Cholesterol V2 to V6 % Change Min (Cholesterol; [9]): −25.0%
Cholesterol V2 to V6 Change Max (Cholesterol; [9]): 8.00 mg/dL
Cholesterol V2 to V6 Change Mean (SD) (Cholesterol; [9]): −14.3 (17.60) mg/dL
Cholesterol V2 to V6 Change Median (Cholesterol; [9]): -14.0 mg/dL
Cholesterol V2 to V6 Change Min (Cholesterol; [9]): -39.0 mg/dL
Cholesterol Max (Cholesterol; [10]): 316.0 mg/dL
Cholesterol Mean (SD) (Cholesterol; [10]): 195.1 (57.82) mg/dL
Cholesterol Median (Cholesterol; [10]): 190.0 mg/dL
Cholesterol Min (Cholesterol; [10]): 121.0 mg/dL
Cholesterol Max (Cholesterol; [11]): 316.0 mg/dL
Cholesterol Mean (SD) (Cholesterol; [11]): 189.7 (58.32) mg/dL
Cholesterol Median (Cholesterol; [11]): 173.0 mg/dL
Cholesterol Min (Cholesterol; [11]): 121.0 mg/dL
Cholesterol Max (Cholesterol; [12]): 284.0 mg/dL
Cholesterol Mean (SD) (Cholesterol; [12]): 169.7 (45.52) mg/dL
Cholesterol Median (Cholesterol; [12]): 160.5 mg/dL
Cholesterol Min (Cholesterol; [12]): 104.0 mg/dL
Cholesterol Max (Cholesterol; [13]): 284.0 mg/dL
Cholesterol Mean (SD) (Cholesterol; [13]): 161.9 (46.52) mg/dL
Cholesterol Median (Cholesterol; [13]): 151.0 mg/dL
Cholesterol Min (Cholesterol; [13]): 104.0 mg/dL
Cholesterol V2 to V6 % Change Max (Cholesterol; [14]): 15.86%
Cholesterol V2 to V6 % Change Mean (SD) (Cholesterol; [14]): −8.52 (14.73) %
Cholesterol V2 to V6 % Change Median (Cholesterol; [14]): −8.29%
Cholesterol V2 to V6 % Change Min (Cholesterol; [14]): −38.0%
Cholesterol V2 to V6 Change Max (Cholesterol; [14]): 32.00 mg/dL
Cholesterol V2 to V6 Change Mean (SD) (Cholesterol; [14]): −18.6 (31.99) mg/dL
Cholesterol V2 to V6 Change Median (Cholesterol; [14]): -13.5 mg/dL
Cholesterol V2 to V6 Change Min (Cholesterol; [14]): -92.0 mg/dL
Cholesterol V2 to V6 % Change Max (Cholesterol; [15]): 15.86%
Cholesterol V2 to V6 % Change Mean (SD) (Cholesterol; [15]): −9.11 (16.06) %
Cholesterol V2 to V6 % Change Median (Cholesterol; [15]): −8.48%
Cholesterol V2 to V6 % Change Min (Cholesterol; [15]): −38.0%
Cholesterol V2 to V6 Change Max (Cholesterol; [15]): 32.00 mg/dL
Cholesterol V2 to V6 Change Mean (SD) (Cholesterol; [15]): −18.8 (33.97) mg/dL
Cholesterol V2 to V6 Change Median (Cholesterol; [15]): -13.5 mg/dL
Cholesterol V2 to V6 Change Min (Cholesterol; [15]): -92.0 mg/dL

Reference: patent US20200085776A1, “Methods of Reducing C-Reactive Protein and/or Treating Cardiovascular Disease” (CARDAX, INC., priority 2018, published 2020)
